Molecules are shown by their SMILES.

In one test the target is T1, CaV2.2 (Homo sapiens, UniProt Q00975).
T1 construct: expressed in transfected cells; host or cells: HEK293
T1 sequence (Q00975 whole entry): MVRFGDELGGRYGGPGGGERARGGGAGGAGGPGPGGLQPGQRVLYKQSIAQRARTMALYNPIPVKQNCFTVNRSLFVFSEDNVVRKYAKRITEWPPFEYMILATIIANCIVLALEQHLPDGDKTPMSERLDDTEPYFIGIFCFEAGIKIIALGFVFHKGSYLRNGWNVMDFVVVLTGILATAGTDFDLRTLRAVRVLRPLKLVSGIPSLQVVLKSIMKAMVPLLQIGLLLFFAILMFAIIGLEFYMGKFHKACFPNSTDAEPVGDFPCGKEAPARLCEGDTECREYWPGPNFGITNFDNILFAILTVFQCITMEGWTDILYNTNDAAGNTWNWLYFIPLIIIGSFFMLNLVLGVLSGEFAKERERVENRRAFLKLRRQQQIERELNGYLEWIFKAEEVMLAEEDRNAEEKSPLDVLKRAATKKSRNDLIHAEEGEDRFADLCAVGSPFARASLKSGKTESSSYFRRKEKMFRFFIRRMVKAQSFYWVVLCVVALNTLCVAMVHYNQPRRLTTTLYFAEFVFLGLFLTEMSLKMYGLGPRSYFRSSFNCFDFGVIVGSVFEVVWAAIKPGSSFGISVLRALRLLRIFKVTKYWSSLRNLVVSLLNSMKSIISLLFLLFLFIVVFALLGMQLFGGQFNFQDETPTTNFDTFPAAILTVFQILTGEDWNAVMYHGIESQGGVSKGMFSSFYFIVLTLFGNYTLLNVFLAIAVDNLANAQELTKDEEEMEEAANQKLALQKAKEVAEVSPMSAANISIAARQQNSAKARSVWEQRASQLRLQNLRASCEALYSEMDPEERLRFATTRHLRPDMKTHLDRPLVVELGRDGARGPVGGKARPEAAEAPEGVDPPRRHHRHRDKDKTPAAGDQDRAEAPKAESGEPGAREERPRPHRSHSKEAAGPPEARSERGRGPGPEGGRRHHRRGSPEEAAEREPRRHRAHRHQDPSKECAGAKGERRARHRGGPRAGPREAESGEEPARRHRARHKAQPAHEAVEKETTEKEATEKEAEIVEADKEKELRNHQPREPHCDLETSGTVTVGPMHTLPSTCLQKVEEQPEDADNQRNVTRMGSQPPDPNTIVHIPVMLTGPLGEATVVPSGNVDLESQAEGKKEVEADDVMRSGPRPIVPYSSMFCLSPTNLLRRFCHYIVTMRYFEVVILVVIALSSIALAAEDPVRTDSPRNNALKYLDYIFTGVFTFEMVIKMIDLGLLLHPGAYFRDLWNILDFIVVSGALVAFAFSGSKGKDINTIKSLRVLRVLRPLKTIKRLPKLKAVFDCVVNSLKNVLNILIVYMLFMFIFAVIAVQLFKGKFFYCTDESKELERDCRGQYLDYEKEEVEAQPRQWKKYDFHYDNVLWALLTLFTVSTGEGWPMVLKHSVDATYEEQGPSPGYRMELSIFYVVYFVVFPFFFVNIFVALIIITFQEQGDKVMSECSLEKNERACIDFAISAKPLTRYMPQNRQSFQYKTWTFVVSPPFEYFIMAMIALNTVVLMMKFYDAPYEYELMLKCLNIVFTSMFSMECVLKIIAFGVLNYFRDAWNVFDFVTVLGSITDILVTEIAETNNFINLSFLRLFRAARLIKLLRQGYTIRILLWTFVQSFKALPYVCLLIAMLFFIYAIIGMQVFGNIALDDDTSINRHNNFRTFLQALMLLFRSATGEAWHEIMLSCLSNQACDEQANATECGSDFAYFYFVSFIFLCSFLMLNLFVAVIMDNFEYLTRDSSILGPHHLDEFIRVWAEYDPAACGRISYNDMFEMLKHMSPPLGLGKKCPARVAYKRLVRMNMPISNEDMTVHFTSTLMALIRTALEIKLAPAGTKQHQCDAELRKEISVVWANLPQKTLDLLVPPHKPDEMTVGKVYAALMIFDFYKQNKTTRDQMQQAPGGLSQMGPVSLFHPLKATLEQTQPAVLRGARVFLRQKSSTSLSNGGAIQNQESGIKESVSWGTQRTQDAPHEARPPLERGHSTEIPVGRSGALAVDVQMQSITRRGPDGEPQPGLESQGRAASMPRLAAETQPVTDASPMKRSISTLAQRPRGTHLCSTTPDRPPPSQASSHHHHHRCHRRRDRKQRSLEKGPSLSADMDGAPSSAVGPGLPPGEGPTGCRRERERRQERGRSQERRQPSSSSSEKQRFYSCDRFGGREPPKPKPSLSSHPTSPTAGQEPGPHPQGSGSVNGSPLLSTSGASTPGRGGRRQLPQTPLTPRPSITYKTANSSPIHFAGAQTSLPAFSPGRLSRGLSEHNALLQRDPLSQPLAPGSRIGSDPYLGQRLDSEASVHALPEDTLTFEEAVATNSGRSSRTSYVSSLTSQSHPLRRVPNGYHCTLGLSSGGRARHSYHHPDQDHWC
T1 sequence (P54284 whole entry partner): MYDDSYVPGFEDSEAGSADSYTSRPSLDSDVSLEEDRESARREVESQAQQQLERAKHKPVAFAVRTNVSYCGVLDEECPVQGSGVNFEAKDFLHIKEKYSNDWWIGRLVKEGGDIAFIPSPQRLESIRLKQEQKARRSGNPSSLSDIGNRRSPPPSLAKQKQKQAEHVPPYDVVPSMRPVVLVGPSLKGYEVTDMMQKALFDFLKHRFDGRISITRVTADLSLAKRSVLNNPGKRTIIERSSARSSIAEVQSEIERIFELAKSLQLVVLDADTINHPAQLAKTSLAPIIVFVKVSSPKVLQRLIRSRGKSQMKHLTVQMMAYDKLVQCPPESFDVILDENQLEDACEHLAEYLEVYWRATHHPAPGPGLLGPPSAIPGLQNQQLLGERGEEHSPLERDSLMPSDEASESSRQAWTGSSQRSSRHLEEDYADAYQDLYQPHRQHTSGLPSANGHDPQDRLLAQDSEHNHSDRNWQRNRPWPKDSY
T1 sequence (P54289 25-946 partner limits assumed): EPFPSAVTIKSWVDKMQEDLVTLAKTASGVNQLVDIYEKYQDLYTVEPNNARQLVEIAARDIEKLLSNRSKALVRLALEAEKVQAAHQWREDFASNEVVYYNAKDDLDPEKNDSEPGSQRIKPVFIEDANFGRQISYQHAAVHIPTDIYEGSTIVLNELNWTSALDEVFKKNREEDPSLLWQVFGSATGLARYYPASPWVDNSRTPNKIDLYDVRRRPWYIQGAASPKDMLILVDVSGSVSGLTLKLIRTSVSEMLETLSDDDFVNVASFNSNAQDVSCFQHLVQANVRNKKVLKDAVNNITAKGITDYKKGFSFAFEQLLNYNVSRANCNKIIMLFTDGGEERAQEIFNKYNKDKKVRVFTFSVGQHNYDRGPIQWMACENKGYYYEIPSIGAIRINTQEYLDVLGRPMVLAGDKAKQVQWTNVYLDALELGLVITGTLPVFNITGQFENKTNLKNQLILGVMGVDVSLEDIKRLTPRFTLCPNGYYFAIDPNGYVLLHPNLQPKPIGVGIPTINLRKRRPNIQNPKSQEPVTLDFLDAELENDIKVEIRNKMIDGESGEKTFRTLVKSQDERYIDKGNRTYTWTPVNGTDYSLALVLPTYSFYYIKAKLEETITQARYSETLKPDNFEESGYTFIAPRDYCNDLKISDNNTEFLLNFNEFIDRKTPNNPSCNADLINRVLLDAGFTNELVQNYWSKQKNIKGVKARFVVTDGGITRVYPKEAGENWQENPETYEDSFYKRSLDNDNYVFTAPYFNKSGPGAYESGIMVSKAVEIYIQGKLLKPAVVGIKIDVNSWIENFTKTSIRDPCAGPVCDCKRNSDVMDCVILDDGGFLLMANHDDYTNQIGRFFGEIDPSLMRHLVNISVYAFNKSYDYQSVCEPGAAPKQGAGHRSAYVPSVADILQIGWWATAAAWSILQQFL
T1 sequence (P54289 947-1103 partner limits assumed): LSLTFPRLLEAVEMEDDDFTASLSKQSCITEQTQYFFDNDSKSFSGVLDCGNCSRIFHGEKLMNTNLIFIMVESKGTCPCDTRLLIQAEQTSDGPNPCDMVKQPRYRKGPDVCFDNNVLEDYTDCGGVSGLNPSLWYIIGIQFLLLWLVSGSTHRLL
The test can be described thus: VIPR optical membrane potential assay with electrical stimulation. Type of test: cell-based.
Details: not given
How it is done:
Antagonist properties of test compounds were assessed as follows. Cells expressing the CaV of interest were placed into microtiter plates. After an incubation period, the cells were stained with fluorescent dyes sensitive to the transmembrane potential. The test compounds were added to the microtiter plate. The cells were stimulated with electrical means to evoke a CaV dependent membrane potential change from unblocked channels, which was detected and measured with trans-membrane potential-sensitive dyes. Antagonists were detected as a decreased membrane potential response to the stimulus.
VIPR® Optical Membrane Potential Assay Method with Electrical Stimulation
The following is an example of how CaV2.2 inhibition activity is measured using the optical membrane potential method. Other subtypes are performed in an analogous mode in a cell line expressing the CaV of interest.
HEK293 cells stably expressing CaV2.2 are plated into 96-well microtiter plates. After an appropriate incubation period, the cells are stained with the voltage sensitive dyes CC2-DMPE/DiSBAC2(3) as follows.
2×CC2-DMPE=20 μM CC2-DMPE: 10 mM CC2-DMPE is vortexed with an equivalent volume of 10% Pluronic, followed by vortexing in required amount of HBSS containing 10 mM HEPES. Each cell plate will require 5 mL of 2×CC2-DMPE. 50 μL of 2×CC2-DMPE is added to wells containing washed cells, resulting in a 10 μM final staining concentration. The cells are stained for 30 minutes in the dark at RT.
Vortex in required amount of Bath X with beta-cyclodextrin. Each 96 well cell plate will require 5 ml of 2×CC2DMPE. Wash plate with ELx405 with Bath X, leaving a residual volume of 50 μL/well. Add 50 μL of 2×CC2DMPE & DISBAC6(3) to each well. Stain for 30 minutes in the dark at RT.
Allow solution to sit for 10 minutes. Slowly mix in 370 mM BaCl2. This solution can be used to solvate compound plates. Note that compound plates are made at 1.5× drug concentration and not the usual 2×. Wash CC2 stained plate, again, leaving residual volume of 50 pt. Add 100 uL/well of the AY17 solution. Stain for 15 minutes in the dark at RT. Run plate on the optical reader.
The instrument comprises a microtiter plate handler, an optical system for exciting the coumarin dye while simultaneously recording the coumarin and oxonol emissions, a waveform generator, a current- or voltage-controlled amplifier, and a device for inserting electrodes in well. Under integrated computer control, this instrument passes user-programmed electrical stimulus protocols to cells within the wells of the microtiter plate.
Insert or use electrodes into each well to be assayed.
Use the current-controlled amplifier to deliver stimulation wave pulses for 3-5 s. Two seconds of pre-stimulus recording are performed to obtain the un-stimulated intensities. Five seconds of post-stimulation recording are performed to examine the relaxation to the resting state.
Data are analyzed and reported as normalized ratios of background-subtracted emission intensities measured in the 460 nm and 580 nm channels. Background intensities are then subtracted from each assay channel. Background intensities are obtained by measuring the emission intensities during the same time periods from identically treated assay wells in which there are no cells. The response as a function of time is then reported as the ratios obtained using the following formula: […]
The data is further reduced by calculating the initial (Ri) and final (Rf) ratios. These are the average ratio values during part or all of the pre-stimulation period, and during sample points during the stimulation period. The response to the stimulus R=Rf/Ri is then calculated.
Control responses are obtained by performing assays in the presence of a compound with the desired properties (positive control), such as mibefradil, and in the absence of pharmacological agents (negative control). Responses to the negative (N) and positive (P) controls are calculated as above.
As a reminder, the IC50 is the concentration that gives 50% inhibition. `O=C(c1cc2cc(S(=O)(=O)N3CCCCCC3)ccc2o1)N1CCC2(CC1)OCCO2` [compound 183] gave an IC50 of 5 to 20 µM.

The same test, now with this note: Table 3, biological assay data; read-out: IC50.
`Cc1c(C(=O)N2CC(C)CC(C)C2)oc2ccc(S(=O)(=O)N3CCCCC3)cc12` (stereo not drawn) [compound 124]: the IC50 is 5 to 20 µM.
Same read-out and setting: to `COc1ccc(NS(=O)(=O)c2ccc3oc(C(=O)NC4CC4)c(C)c3c2)cc1` [compound 115] belongs 5 to 20 µM; to `CCCCN(C)C(=O)c1oc2ccc(S(=O)(=O)N3CCC(C)CC3)cc2c1C` [compound 325], under 5 µM.
On the same count and under the same terms, the result for `CCN(CC)C(=O)c1cc2cc(S(=O)(=O)N3CCCCCC3)ccc2[nH]1` [compound 46] reads under 5 µM.
Turning to `CNC(=O)c1oc2ccc(S(=O)(=O)N3CCOCC3)cc2c1C` [compound 22], the IC50 was under 20 µM.
In the case of `Cc1c(C(=O)N2CCC(C)CC2)oc2ccc(S(=O)(=O)N3CCC(C)CC3)cc12` [compound 128], the half-maximal inhibitory concentration (IC50) lay in the range of 5 to 20 µM.
Still for that read-out and setting: to `Cc1c(C(=O)N2CCCCC2C)oc2ccc(S(=O)(=O)N3CCOCC3)cc12` (stereo not drawn) [compound 14] belongs under 20 µM; to `CC1CC(C)CN(S(=O)(=O)c2ccc3oc(C(=O)NCc4ccccc4)cc3c2)C1` (stereo not drawn) [compound 276], under 5 µM.
On the same count and under the same terms, to `CCN(CC)S(=O)(=O)c1ccc2oc(C(=O)NC(C)C)c(C)c2c1` [compound 399] belongs under 20 µM; to `Cc1c(C(=O)NCCC2CCOCC2)[nH]c2ccc(S(=O)(=O)N3CCC(C)CC3)cc12` [compound 27], 5 to 20 µM; to `Cc1c(C(=O)NCCCc2ccccc2)[nH]c2ccc(S(=O)(=O)N3CC(C)CC(C)C3)cc12` (stereo not drawn) [compound 49], under 5 µM.
Still for that read-out and setting: the result for `Cc1ccc(NS(=O)(=O)c2ccc3oc(C(=O)NC4CC4)c(C)c3c2)cc1` [compound 288] reads 5 to 20 µM.
`CC1CCN(S(=O)(=O)c2ccc3[nH]c(C(=O)N4CCCC4)cc3c2)CC1` [compound 104]: the IC50 lay within 5 to 20 µM.
The same measure, in the same setting: the result for `Cc1c(C(=O)NCCC2=CCCCC2)oc2ccc(S(=O)(=O)N3CCOCC3)cc12` [compound 197] reads under 20 µM; that for `CCN(CC)S(=O)(=O)c1ccc2oc(C(=O)N3CCCCC3)c(C)c2c1` [compound 367], under 20 µM; that for `CC1CC(C)CN(S(=O)(=O)c2ccc3oc(C(=O)NC(C)C)cc3c2)C1` (stereo not drawn) [compound 271], under 5 µM.
On the same count and under the same terms, to `CCOC(=O)N1CCN(C(=O)c2cc3cc(S(=O)(=O)N4CC(C)CC(C)C4)ccc3o2)CC1` (stereo not drawn) [compound 346] belongs under 5 µM.
Regarding `Cc1c(C(=O)NC2CC2)oc2ccc(S(=O)(=O)Nc3ccc(F)cc3)cc12` [compound 228], the IC50 was under 20 µM.
On the same count and under the same terms, to `Cc1c(C(=O)N2CCC(C)CC2)oc2ccc(S(=O)(=O)N3CCC4(CC3)OCCO4)cc12` [compound 4] belongs 5 to 20 µM; to `Cc1c(C(=O)N2CCC(C)CC2)oc2ccc(S(=O)(=O)N3CCCC(C)C3)cc12` (stereo not drawn) [compound 376], under 5 µM; to `Cc1c(C(=O)N2CCN(C)CC2)[nH]c2ccc(S(=O)(=O)N3CCC(C)CC3)cc12` [compound 290], 5 to 20 µM.
As for `Cc1ccc(CNS(=O)(=O)c2ccc3oc(C(=O)NC4CC4)c(C)c3c2)cc1` [compound 394], the IC50 was under 20 µM.
On to `CN(Cc1ccccc1)C(=O)c1cc2cc(S(=O)(=O)N3CCCCCC3)ccc2o1` [compound 43], for which the IC50 was under 5 µM.
On the same count and under the same terms, to `CC1CCCCN1C(=O)c1cc2cc(S(=O)(=O)N3CCCCCC3)ccc2o1` (stereo not drawn) [compound 392] belongs 5 to 20 µM; to `Cc1c(C(=O)NC2CC2)oc2ccc(S(=O)(=O)N3CCC(C)CC3)cc12` [compound 395], 5 to 20 µM; to `CC1CC(C)CN(S(=O)(=O)c2ccc3[nH]c(C(=O)NC4CCCC4)cc3c2)C1` (stereo not drawn) [compound 366], under 5 µM.
On the same count and under the same terms, to `CCOC(=O)N1CCN(C(=O)c2oc3ccc(S(=O)(=O)N(CC)CC)cc3c2C)CC1` [compound 328] belongs under 20 µM; to `Cc1c(C(=O)N2CCCC2)oc2ccc(S(=O)(=O)N3CCC(C)CC3)cc12` [compound 12], 5 to 20 µM; to `CC1CCCN(C(=O)c2cc3cc(S(=O)(=O)N4CCCCCC4)ccc3[nH]2)C1` (stereo not drawn) [compound 55], under 5 µM.
Same read-out and setting: to `CC1CCN(S(=O)(=O)c2ccc3[nH]c(C(=O)N4CCCCC4)cc3c2)CC1` [compound 368] belongs under 5 µM; to `Cc1c(C(=O)N2CCCCC2)oc2ccc(S(=O)(=O)N3CCCCC3)cc12` [compound 64], 5 to 20 µM.
Consider `CCN(CC)C(=O)c1cc2cc(S(=O)(=O)N3CC(C)CC(C)C3)ccc2n1CCCN1CCN(C)CC1` (stereo not drawn) [compound 374], for which the IC50 was under 5 µM.
Still for that read-out and setting: to `Cc1c(C(=O)N2CCc3ccccc3C2)oc2ccc(S(=O)(=O)N3CCCCC3)cc12` [compound 462] belongs under 5 µM; to `Cc1c(C(=O)N(C)Cc2ccccc2)oc2ccc(S(=O)(=O)N3CCCC(C)C3)cc12` (stereo not drawn) [compound 213], under 5 µM; to `CNC(=O)c1cc2cc(S(=O)(=O)N3CCC(C)CC3)ccc2o1` [compound 438], 5 to 20 µM.
On the same count and under the same terms, the result for `CNC(=O)c1oc2ccc(S(=O)(=O)N3CCCCC3)cc2c1C` [compound 155] reads under 20 µM; that for `Cc1c(C(=O)N(CCN(C)C)Cc2ccccc2)oc2ccc(S(=O)(=O)N3CCC(C)CC3)cc12` [compound 396], under 5 µM.
On the same count and under the same terms, to `Cc1c(C(=O)N2CCCCC2)oc2ccc(S(=O)(=O)N3CC(C)CC(C)C3)cc12` (stereo not drawn) [compound 451] belongs under 5 µM; to `Cc1c(C(=O)N2CC(C)CC(C)C2)oc2ccc(S(=O)(=O)N3CCOCC3)cc12` (stereo not drawn) [compound 144], 5 to 20 µM; to `CC1CCN(S(=O)(=O)c2ccc3[nH]c(C(=O)NC(C)C)cc3c2)CC1` [compound 142], under 5 µM.
For `CCCCN(C)C(=O)c1oc2ccc(S(=O)(=O)N3CCCC(C)C3)cc2c1C` (stereo not drawn) [compound 369], the IC50 was under 5 µM.
Same read-out and setting: the result for `CNC(=O)c1cc2cc(S(=O)(=O)N3CCC(C)CC3)ccc2[nH]1` [compound 192] reads under 5 µM; that for `CCOC(=O)N1CCN(C(=O)c2[nH]c3ccc(S(=O)(=O)N4CC(C)CC(C)C4)cc3c2C)CC1` (stereo not drawn) [compound 439], under 5 µM; that for `CC1CC(C)CN(S(=O)(=O)c2ccc3oc(C(=O)NCCCc4ccccc4)cc3c2)C1` (stereo not drawn) [compound 53], under 5 µM.
Still for that read-out and setting: the result for `CCOC(=O)N1CCN(C(=O)c2oc3ccc(S(=O)(=O)N4CCCC(C)C4)cc3c2C)CC1` (stereo not drawn) [compound 403] reads under 5 µM.
The same measure, in the same setting: to `CNC(=O)c1cc2cc(S(=O)(=O)N3CC(C)CC(C)C3)ccc2o1` (stereo not drawn) [compound 454] belongs under 5 µM.
As to `Cc1c(C(=O)N2CCCCC2C)oc2ccc(S(=O)(=O)N3CCCCCC3)cc12` (stereo not drawn) [compound 334], the IC50 is 5 to 20 µM.
As for `CC1CCN(S(=O)(=O)c2ccc3oc(C(=O)N4CCCCC4)cc3c2)CC1` [compound 311], the IC50 was under 5 µM.
The same measure, in the same setting: to `Cc1c(C(=O)NCC2CCCO2)oc2ccc(S(=O)(=O)N3CCC(C)CC3)cc12` (stereo not drawn) [compound 238] belongs 5 to 20 µM; to `CC1CCN(S(=O)(=O)c2ccc3oc(C(=O)NCC4CCCO4)cc3c2)CC1` (stereo not drawn) [compound 456], 5 to 20 µM.
On the same count and under the same terms, to `CC1CC(C)CN(S(=O)(=O)c2ccc3oc(C(=O)NCC4CCCO4)cc3c2)C1` (stereo not drawn) [compound 408] belongs under 5 µM; to `Cc1c(C(=O)NC2CC2)oc2ccc(S(=O)(=O)N3CCCC3)cc12` [compound 210], under 20 µM.
For the compound `CCN(CC)S(=O)(=O)c1ccc2oc(C(=O)NCC3CCCO3)c(C)c2c1` (stereo not drawn) [compound 179], the IC50 was under 20 µM.
The same measure, in the same setting: the result for `O=C(NCCCc1ccccc1)c1cc2cc(S(=O)(=O)N3CCCCCC3)ccc2[nH]1` [compound 5] reads under 5 µM; that for `CCCCN(C)C(=O)c1[nH]c2ccc(S(=O)(=O)N3CCC(C)CC3)cc2c1C` [compound 117], under 5 µM.
The same measure, in the same setting: the result for `O=C(c1cc2cc(S(=O)(=O)N3CCCCCC3)ccc2[nH]1)N1CCCCCC1` [compound 358] reads 5 to 20 µM.

The record behind these values is patent US8211935B2, “Heterocyclic derivatives for modulation of calcium channels” (Vertex Pharmaceuticals Incorporated, priority 2004, dated 2012).
